Results reported in PMC12561453, “Synthesis and Structure–Activity Relationship Study of 2-(amino)quinazolin-4(3H)-one Derivatives as Potential Inhibitors of Methicillin-Resistant Staphylococcus aureus (MRSA)” (Antibiotics, 2025).
pIC50: −log10 of the molar value. Values after ≈ are worked out from the molar mass of the structure shown. Like-named read-outs stand apart in the source and are kept apart here.

Key:
[1] = system: S. aureus ATCC25923; assay: Broth microdilution dose-response, S. aureus ATCC25923; format: cell-based, Staphylococcus aureus
Description: (§1) The antistaphylococcal activities (MIC50) of the synthesized compounds were examined via a previously described broth microdilution method against two S. aureus strains: ATCC25923, a methicillin-sensitive reference strain, and JE2, a methicillin-resistant strain of the USA300 lineage (Figure 2, Table 1).
(§2) Staphylococcus aureus USA300, a methicillin-resistant strain, was obtained from the Nebraska Transposon Mutant Library. Staphylococcus aureus ATCC25923, a pan-drug-susceptible strain, was purchased from the American Type Culture Collection (ATCC) (Manassas, VA, USA). S. aureus strains were grown in Cation-Adjusted Mueller–Hinton broth (CAMHB) (Difco) at 37 °C. Bacterial strain stocks were stored in vials with 25% glycerol at −80 °C. For each experiment, overnight cultures were prepared by inoculating a frozen bacterial strain stock in 10 mL of CAMHB medium and incubating at 37 °C in a shaking incubator (180 rpm). For the preliminary screen and dose–response experiments, 100 µL of overnight culture was inoculated into 10 mL of fresh CAMHB and incubated for 3 h at 37 °C and 180 rpm.
(§3) Antibiotic susceptibility assay was tested according to modified Clinical and Laboratory Standards Institute (CLSI) laboratory guidelines for broth microdilution assays. S. aureus was cultured in CAMHB, and bacterial cells were prepared with an OD600 of 0.005. DRC plates were prepared by adding 40 µL of bacterial suspension to each well, where 10 µL of each compound had been dispensed for […] of two-fold serial dilutions starting at […]. After incubation of the plates at 37 °C for 18–24 h with 5% CO2, the growth of S. aureus was detected by measuring the OD600nm using an Ensight (Revvity) spectrometer (Revvity, Waltham, MA, USA).
(§4) Figure 2 In vitro antibacterial activities of 2-(amino)quinazolin-4(3H)-one derivatives. S. aureus ATCC25923 (blue) and USA300 JE (orange) strains were incubated with serial dilutions of 2-(amino)quinazolin-4(3H)-one derivatives (0.19–100 µM) for 18–24 h. The dose–responses were observed by measuring OD600nm. The plots were drawn from each group of strains with nonlinear curve fits.

[2] = system: S. aureus USA300 JE2; assay: Broth microdilution dose-response, S. aureus USA300 JE2 (MRSA); format: cell-based, Staphylococcus aureus; settings: for fold better antibacterial activity against JE2 compared to compound 1: JE2, versus compound 1
Description: as §1, §2, §3, §4

[3] = system: HepG2 cells; assay: In vitro cytotoxicity, HepG2 viability (resazurin); format: cell-based, human; settings: Homo sapiens, HepG2, 24 h, read-out: HepG2 IC50
Method: The in vitro cytotoxicity of the compounds was evaluated by measuring the viability of HepG2 cells, a human liver cell line, following treatment in a dose–response manner, as previously described. […] The efficacy window was calculated as the ratio of IC50 in HepG2 cells to MIC50 against JE2.
To test cytotoxicity with compounds, the human liver cell line HepG2 (ATCC #HB-8065) was used for the assay. HepG2 was cultured in DMEM with 10% fetal bovine serum (FBS) in a 96-well microplate at 37 °C and 5% CO2. HepG2 cells were seeded at a final density of 5 × 10^4 cells/well, and DMEM-containing diluted compounds were added and incubated on the plates at 37 °C in 5% CO2 for 24 h. After that, resazurin (final concentration, 0.1 mg/mL) was added to each well and incubated on the plates at 37 °C in 5% CO2 for 2 h. To detect the fluorescence at 530 nm excitation and 590 nm emission, an Ensight multimode plate reader was used (Revvity, Waltham, MA, USA).

[4] = system: S. aureus USA300 JE2 expressing GFP in H460 cells; assay: microbe, parasite or virus in culture; format: cell-based, Staphylococcus aureus; settings: for MIC50: Staphylococcus aureus, USA300, 24 h, read-out: H460 Assay MIC50 (MIC50 ex vivo)
Description: Staphylococcus aureus, including MRSA, can invade host cells and replicate intracellularly, which complicates treatment with current therapies. To evaluate the intracellular antibacterial activities of the selected compounds, the fifteen compounds tested for cytotoxicity were further assessed using a cell infection model based on H460 human lung epithelial cells, which mimic MRSA-mediated pneumonia. H460 cells were infected with the USA300 JE2 expressing green fluorescent protein (GFP) and subsequently treated with the compounds in a dose–response manner, along with three reference antibiotics: vancomycin, linezolid, and erythromycin. After 24 h of incubation, bacterial loads were quantified by measuring GFP fluorescence in each well. MIC50 values determined in the H460 infection model (MIC50 ex vivo) were generally higher than those obtained from the in vitro tests, likely due to either limited compound penetration into host cells or reduced antibacterial effect of the compounds against intracellular bacteria (Figure 3, Table 2). […] These findings underscore the potential of compound 6y as a promising lead for further development as a novel antistaphylococcal agent.
To see the ex vivo antimicrobial activity of the compound, the human lung carcinoma cell line H460 (ATCC #HTB-177) was used. The H460 cells were cultured in RPMI 1640 medium with 10% fetal bovine serum (FBS) and in a 96-well microplate at 37 °C and 5% CO2. Cell lines were cultured for 2 days, until they reached full confluence in the well. S. aureus (USA300-containing and pCM29-encoding GFP) was cultured in CAMHB with 10 µg/mL of chloramphenicol, and bacterial cells were harvested. After washing the bacterial cells with phosphate-buffered saline (PBS) and suspending them in RPMI, infected H460 cells with S. aureus (1 × 10^7 CFU) and incubated them for 2.5 h. Samples were washed three times with PBS. Then, cells were treated with gentamicin (50 µg/mL of gentamicin in RPMI) and incubated for 1 h. Samples were washed with PBS, RPMI-containing diluted compounds were added, and then they were incubated at 37 °C in 5% CO2 for 24 h. To detect the Green fluorescent protein (GFP) signal, an Ensight multimode plate reader and Opera Phenix Plus (Revvity, Waltham, MA, USA) were used.
Ex vivo infection model images were generated using the Opera Phenix Plus high-content imaging system. Images were obtained by a confocal microscope with a 20× water objective lens. To detect the bacteria fluorescence signal (GFP), the Alexa 488 channel (488 nm laser/500–550 filter, Thermo Fisher Scientific, Waltham, MA, USA) was used, and the brightfield channel was used for H460 cell images.
Figure 3 Antibacterial activities of 2-(amino)quinazolin-4(3H)-one derivatives in the H460 infection model. H460 cells were infected with S. aureus USA300 JE strain expressing GFP, followed by treatment with serial dilutions of 2-(amino)quinazolin-4(3H)-one derivatives. After incubation at 37 °C for 24 h with 5% CO2, fluorescence signals of the bacteria were detected at 488 nm/510 nm using a multilabel plate reader.

[5] = Staphylococcus aureus, ATCC25923, methicillin-sensitive strain, OD600 after 18–24 h, read-out: ATCC25923 MIC50
[6] = methicillin-sensitive strain, OD600 after 18–24 h, read-out: ATCC25923 MIC50
[7] = Staphylococcus aureus, USA300, USA300 JE2, methicillin-resistant, OD600 after 18–24 h, read-out: USA300 MIC50
[8] = USA300 JE2, methicillin-resistant, OD600 after 18–24 h, read-out: USA300 MIC50

Structure (SMILES) | MIC50 ([1]; Staphylococcus aureus, ATCC25923, read-out: ATCC25923 MIC50) | MIC50 ([2]; Staphylococcus aureus, USA300, read-out: USA300 MIC50) | pIC50 [3] | H460 Assay MIC50 (MIC50 ex vivo) ([4]; H460 cells infected with USA300 JE2-GFP, 24 h, GFP fluorescence) | MIC50 [4] | MIC50 [1, 5] | MIC50 [1, 6] | MIC50 [2, 7] | MIC50 [2, 8] | pIC50 ([3]; HepG2 cells, 24 h, resazurin) | fold better antibacterial activity against JE2 compared to compound 1 [2]
CN[C@H](CC(C)C)C(=O)N[C@H]1C(=O)N[C@@H](CC(N)=O)C(=O)N[C@H]2C(=O)N[C@H]3C(=O)N[C@H](C(=O)N[C@H](C(=O)O)c4cc(O)cc(O)c4-c4cc3ccc4O)[C@H](O)c3ccc(c(Cl)c3)Oc3cc2cc(c3O[C@@H]2O[C@H](CO)[C@@H](O)[C@H](O)[C@H]2O[C@H]2C[C@](C)(N)[C@H](O)[C@H](C)O2)Oc2ccc(cc2Cl)[C@H]1O [Vancomycin, reference compound] | 0.3 µM (≈ 0.435 µg/mL) | 0.35 µM (≈ 0.507 µg/mL) | < 4.00 | 7.7 µM | 7.7 µM (≈ 11.2 µg/mL) |  |  |  |  |  | 
O=c1[nH]c(Nc2ccc(Cl)cc2)nc2cc(Cl)ccc12 [6v, 7-Chloro-2-((4-chlorophenyl)amino)quinazolin-4(3H)-one] |  |  |  |  | 23.9 µM (≈ 7.32 µg/mL) | 2.1 to 4.5 µM (≈ 0.643 to 1.38 µg/mL) | 2.7 µM (≈ 0.827 µg/mL) | 0.9 to 3 µM (≈ 0.276 to 0.918 µg/mL) | 1.7 µM (≈ 0.52 µg/mL) | 4.59 | 
O=c1[nH]c(Nc2cc(Cl)cc(Cl)c2)nc2c(Cl)cc(Cl)cc12 [6i, 6,8-Dichloro-2-((3,5-dichlorophenyl)amino)quinazolin-4(3H)-one] |  |  |  |  | 26.5 µM (≈ 9.94 µg/mL) | 3 to 6 µM (≈ 1.13 to 2.25 µg/mL) | 5.7 µM (≈ 2.14 µg/mL) |  |  | 4.40 | at least 6.5 fold
CC[C@H]1OC(=O)[C@H](C)[C@@H](O[C@H]2C[C@@](C)(OC)[C@@H](O)[C@H](C)O2)[C@H](C)[C@@H](O[C@@H]2O[C@H](C)C[C@H](N(C)C)[C@H]2O)[C@](C)(O)C[C@@H](C)C(=O)[C@H](C)[C@@H](O)[C@]1(C)O [Erythromycin, reference compound] |  |  |  |  | 0.1 µM (≈ 0.0734 µg/mL) | 0.7 µM (≈ 0.514 µg/mL) |  | 0.49 µM (≈ 0.36 µg/mL) |  | < 4.00 | 
O=c1[nH]c(Nc2cc(Cl)cc(Cl)c2)nc2cc(C(F)(F)F)ccc12 [6k, 2-((3,5-Dichlorophenyl)amino)-7-(trifluoromethyl)quinazolin-4(3H)-one] |  |  |  |  | 6 µM (≈ 2.24 µg/mL) | 1.3 µM (≈ 0.486 µg/mL) |  | 0.3 µM (≈ 0.112 µg/mL) |  | 4.98 | 
O=c1[nH]c(Nc2cc(F)cc(F)c2)nc2cc(Cl)ccc12 [6q, 7-Chloro-2-((3,5-difluorophenyl)amino)quinazolin-4(3H)-one] |  |  |  |  | 8.7 µM (≈ 2.68 µg/mL) | 2.1 to 4.5 µM (≈ 0.646 to 1.38 µg/mL) | 2.1 µM (≈ 0.646 µg/mL) | 0.9 to 3 µM (≈ 0.277 to 0.923 µg/mL) | 0.9 µM (≈ 0.277 µg/mL) | 4.45 | 
O=c1[nH]c(Nc2cc(Cl)cc(Cl)c2)nc2ccccc12 [6j, 2-((3,5-Dichlorophenyl)amino)quinazolin-4(3H)-one] |  |  |  |  | 35.4 µM (≈ 10.8 µg/mL) | 3 to 6 µM (≈ 0.918 to 1.84 µg/mL) | 5.9 µM (≈ 1.81 µg/mL) |  |  | 4.53 | at least 6.5 fold
O=c1[nH]c(Nc2cccc(Cl)c2)nc2cc(Cl)ccc12 [6u, 7-Chloro-2-((3-chlorophenyl)amino)quinazolin-4(3H)-one] |  |  |  |  | 19.2 µM (≈ 5.88 µg/mL) | 2.1 to 4.5 µM (≈ 0.643 to 1.38 µg/mL) | 3.5 µM (≈ 1.07 µg/mL) | 0.9 to 3 µM (≈ 0.276 to 0.918 µg/mL) | 1.1 µM (≈ 0.337 µg/mL) | 5.37 | 
O=c1[nH]c(Nc2cc(Cl)cc(Cl)c2)nc2cc([N+](=O)[O-])ccc12 [6e, 2-((3,5-Dichlorophenyl)amino)-7-nitroquinazolin-4(3H)-one] |  |  |  |  | 68.8 µM (≈ 24.2 µg/mL) | 3 to 6 µM (≈ 1.05 to 2.11 µg/mL) | 3.0 µM (≈ 1.05 µg/mL) |  |  | 5.03 | at least 6.5 fold
